Source: the NIST ThermoML archive (doi:10.1021/je400488x)
Numbers after ± are expanded uncertainties.

Key:
[1] = 293.15 K; 101.33 kPa; Liquid; Vibrating tube method
[2] = refractive index (Na D-line) (dimensionless); settings: 298.15 K; 101.33 kPa; Liquid; Standard Abbe refractometry

Compound | mass density [1] [kg/m3] | refractive index [2]
Oc1ccc(O)cc1 [1,4-benzenediol] | 1328 ± 1 | –
COC(C)(C)C [2-methoxy-2-methylpropane] | 739.8 ± 0.4 | 1.3689 ± 0.0005
